Test results taken from patent US11667651B2, “Aminopyridine derivatives as phosphatidylinositol phosphate kinase inhibitors” (HiberCell, Inc., priority 2017, dated 2023).

Assays:
Format in all cases: biochemical
[1] = biological target: T1, PIP4K2B (Homo sapiens, UniProt P78356); assay: Trans-FI P kinase assay PIP4K2B (Table 4); conditions: compounds listed under IC50 bins; read-out: Trans-FI P kinase assays: PIP4K2B IC50
T1 construct: made in house; host or cells: E. coli
T1 sequence (P78356 1-416): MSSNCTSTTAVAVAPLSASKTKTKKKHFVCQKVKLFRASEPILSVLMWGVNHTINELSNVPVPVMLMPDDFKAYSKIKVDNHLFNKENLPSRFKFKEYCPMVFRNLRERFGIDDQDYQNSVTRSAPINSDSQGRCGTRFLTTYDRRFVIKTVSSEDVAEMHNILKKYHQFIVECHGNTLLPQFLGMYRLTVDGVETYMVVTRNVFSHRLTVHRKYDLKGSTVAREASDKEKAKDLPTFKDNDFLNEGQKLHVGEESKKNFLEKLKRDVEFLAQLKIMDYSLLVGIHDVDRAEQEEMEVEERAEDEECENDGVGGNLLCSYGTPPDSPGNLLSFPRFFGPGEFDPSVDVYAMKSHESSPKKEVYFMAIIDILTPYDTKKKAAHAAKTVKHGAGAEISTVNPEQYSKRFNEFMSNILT
Summary of the method: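 Transcreener FI detection (Ex 584/Em 623) of GDP, converted via calibration curve, gives IC50 from residual activity versus log concentration (highest 4.8 μM). Reaction: 80 μM PI5P plus DOPE carrier, 100 μM GTP, 5 nM GST-tagged enzyme, pH 7.3 HEPES with MgCl2 and 5% DMSO, 2 h after 1 h enzyme-compound preincubation at 27° C.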

[2] = biological target: T2, PIP4K2A (Homo sapiens, UniProt P48426); assay: Kinase Assay PIP4K2 A (Table 2); parameters: 4 nM PIP4K2A (full length protein, SignalChem); purchased SignalChem; conditions: compounds listed under IC50 bins
T2 sequence (P48426 1-406): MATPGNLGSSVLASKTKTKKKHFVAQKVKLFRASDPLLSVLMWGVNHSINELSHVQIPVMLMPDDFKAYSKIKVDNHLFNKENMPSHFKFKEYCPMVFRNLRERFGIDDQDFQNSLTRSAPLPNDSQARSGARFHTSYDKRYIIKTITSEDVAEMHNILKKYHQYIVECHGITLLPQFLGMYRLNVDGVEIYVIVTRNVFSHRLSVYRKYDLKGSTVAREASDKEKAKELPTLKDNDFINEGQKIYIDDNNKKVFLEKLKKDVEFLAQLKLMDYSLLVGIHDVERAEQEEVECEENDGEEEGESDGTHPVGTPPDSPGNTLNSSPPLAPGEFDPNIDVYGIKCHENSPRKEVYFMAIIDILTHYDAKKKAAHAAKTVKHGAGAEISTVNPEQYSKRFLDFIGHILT
Summary of the method: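 ADP-Glo luminescent read-out after 1 h room-temperature kinase reaction, started with 60 μM ATP solution following 15 min compound pre-incubation. Enzyme/substrate mix: 4 nM full-length PIP4K2A plus 100 μM PI(5)P diC8; buffer MOPS pH 7.2 with 25 mM MgCl2 and Tween 20. IC50 from 10-point, 3-fold titrations normalized to DMSO.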

[3] = biological target: T2, PIP4K2A; assay: ADP-glo kinase assay PIP4K 2A (Table 3); parameters: made in house; host or cells: E. coli; conditions: compounds listed under IC50 bins
Summary of the method: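 ADP-Glo luminescence detected ADP after 1 h RT reaction started by ATP (60 μM solution) on full-length PIP4K2A (4 nM in mix) and PI(5)P diC8 (100 μM in mix), preceded by 15 min enzyme-compound preincubation in MOPS pH 7.2/25 mM MgCl2. Percent inhibition versus DMSO over 10 concentrations fitted for IC50.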

| Structure (SMILES) | IC50 [1] [nM] | IC50 [2] [nM] | IC50 [3] [nM] |
| --- | --- | --- | --- |
| CN(C)C(=O)c1ccc(-c2ccc(Nc3cncc(NC(=O)c4cccc(NC(=O)OC(C)(C)C)c4)c3)nc2)cc1 [Example 98, tert-butyl (3-((5-((5-(4-(dimethylcarbamoyl)phenyl)pyridin-2-yl)amino)pyridin-3-yl)carbamoyl)phenyl)carbamate] | 10 to 100 | 10 to 100 | 100 to 1000 |
| COCc1nc(Nc2cnc3c(c2)N2C(=O)CC[C@H]2CO3)ncc1-c1ccc(N2CCCC2=O)cc1 [Example 197, (S)-2-((4-(methoxymethyl)-5-(4-(2-oxopyrrolidin-1-yl)phenyl)pyrimidin-2-yl)amino)-6,6a,7,8-tetrahydro-9H-pyrido[2,3-b]pyrrolo[1,2-d][1,4]oxazin-9-one] | 1 to 10 | 1 to 10 | 1 to 10 |
| CN(C)C(=O)c1ccc(-c2ccc(Nc3cncc(N4CCN(Cc5ccc(NC(=O)CCc6cccc(N)c6)cc5)C4=O)c3)nc2)cc1 [Example 230, 4-(6-((5-(3-(4-(3-(3-aminophenyl)propanamido)benzyl)-2-oxoimidazolidin-1-yl)pyridin-3-yl)amino)pyridin-3-yl)-N,N-dimethylbenzamide] | 10 to 100 | 1 to 10 | 1 to 10 |
| CN(C)C(=O)c1ccc(-c2ccc(Nc3cncc(N4CCC(Cc5cccc(N)c5)C4=O)c3)nc2)cc1 (stereo not drawn) [Example 134, 4-(6-((5-(3-(3-aminobenzyl)-2-oxopyrrolidin-1-yl)pyridin-3-yl)amino)pyridin-3-yl)-N,N-dimethylbenzamide] | 10 to 100 | 10 to 100 | 10 to 100 |
| CN(C)C/C=C/C(=O)NCCOCCOCCC(=O)Nc1cccc(C(=O)Nc2cncc(Nc3ccc(-c4ccc(C(=O)N(C)C)cc4)cn3)c2)c1 [Example 114, (E)-N,N-dimethyl-4-(6-((5-(3-(2-methyl-6-oxo-10,13-dioxa-2,7-diazahexadec-4-en-16-amido)benzamido)pyridin-3-yl)amino)pyridin-3-yl)benzamide] | 10 to 100 | 10 to 100 | 100 to 1000 |
| CN(C)C(=O)c1ccc(-c2ccc(Nc3cncc(NC(=O)c4ccccn4)c3)nc2)cc1 [Example 128, N-(5-((5-(4-(dimethylcarbamoyl)phenyl)pyridin-2-yl)amino)pyridin-3-yl)picolinamide] | 10 to 100 | 10 to 100 | 100 to 1000 |
| CN(C)C(=O)c1ccc(-c2ccc(Nc3cncc(N4CCN(Cc5ccc(NC(=O)CN)cc5)C4=O)c3)nc2)cc1 [Example 228, 4-(6-((5-(3-(4-(2-aminoacetamido)benzyl)-2-oxoimidazolidin-1-yl)pyridin-3-yl)amino)pyridin-3-yl)-N,N-dimethylbenzamide] | > 1000 | > 1000 | > 1000 |
| CN(C)C/C=C/C(=O)NCC(=O)Nc1cccc(CN2CCN(c3cncc(Nc4ccc(-c5ccc(C(=O)N(C)C)cc5)cn4)c3)C2=O)c1 [Example 227, (E)-4-(6-((5-(3-(3-(2-(4-(dimethylamino)but-2-enamido)acetamido)benzyl)-2-oxoimidazolidin-1-yl)pyridin-3-yl)amino)pyridin-3-yl)-N,N-dimethylbenzamide] | 10 to 100 | ≤ 1 | 1 to 10 |
| CC(=O)N1CCN(C)c2ncc(Nc3ccc(-c4ccc(C(=O)N(C)C)cc4)cn3)cc21 [Example 59, 4-(6-((1-acetyl-4-methyl-1,2,3,4-tetrahydropyrido[2,3-b]pyrazin-7-yl)amino)pyridin-3-yl)-N,N-dimethylbenzamide] | 10 to 100 | 10 to 100 | 100 to 1000 |
| CNC(=O)c1cccc2ncc(Nc3ccc(-c4ccc(N5CCCC5=O)cc4)cn3)cc12 [Example 146, N-methyl-3-((5-(4-(2-oxopyrrolidin-1-yl)phenyl)pyridin-2-yl)amino)quinoline-5-carboxamide] | 10 to 100 | 100 to 1000 | 10 to 100 |
| O=C(Nc1cncc(Nc2ccc(-c3ccc(N4CCCC4=O)cc3)cn2)c1)c1ccc(=O)[nH]c1 [Example 240, 6-oxo-N-(5-((5-(4-(2-oxopyrrolidin-1-yl)phenyl)pyridin-2-yl)amino)pyridin-3-yl)-1,6-dihydropyridine-3-carboxamide] | 10 to 100 | 10 to 100 | 100 to 1000 |
| CN(C)C(=O)c1ccc(-c2ccc(Nc3cncc(NC(=O)c4cccc5[nH]ccc45)c3)nc2)cc1 [Example 143, N-(5-((5-(4-(dimethylcarbamoyl)phenyl)pyridin-2-yl)amino)pyridin-3-yl)-1H-indole-4-carboxamide] | 10 to 100 | 1 to 10 | 10 to 100 |
| CN(C)C(=O)c1ccc(-c2ccc(Nc3cncc(NC(=O)C4CC4c4ccccc4)c3)nc2)cc1 (stereo not drawn) [Example 138, N,N-dimethyl-4-(6-((5-(2-phenylcyclopropane-1-carboxamido)pyridin-3-yl)amino)pyridin-3-yl)benzamide] | 10 to 100 | 1 to 10 | 1 to 10 |
| O=C1CCCN1c1ccc(-c2ccc(Nc3cnc4c(c3)N3C(=O)C(O)C[C@H]3CO4)nc2)cc1F (stereo partly drawn) [Example 267, (6aS)-2-((5-(3-fluoro-4-(2-oxopyrrolidin-1-yl)phenyl)pyridin-2-yl)amino)-8-hydroxy-6,6a,7,8-tetrahydro-9H-pyrido[2,3-b]pyrrolo[1,2-d][1,4]oxazin-9-one] | 10 to 100 | 1 to 10 | 10 to 100 |
| CN(C)CC(=O)Nc1cncc(Nc2ccc(-c3ccc(C(=O)N(C)C)cc3)cn2)c1 [Example 125, 4-(6-((5-(2-(dimethylamino)acetamido)pyridin-3-yl)amino)pyridin-3-yl)-N,N-dimethylbenzamide] | 10 to 100 | 100 to 1000 | 100 to 1000 |
| COCCC(=O)N1CCN(c2cncc(Nc3ccc(-c4ccc(N5CCCC5=O)cc4)cn3)c2)CC1 [Example 241, 1-(4-(6-((5-(4-(3-methoxypropanoyl)piperazin-1-yl)pyridin-3-yl)amino)pyridin-3-yl)phenyl)pyrrolidin-2-one] | 10 to 100 | 10 to 100 | 100 to 1000 |
| CN(C)C(=O)c1ccc(-c2ccc(Nc3cncc(NC(=O)c4ccc5c(c4)COB5O)c3)nc2)cc1 [Example 132, N-(5-((5-(4-(dimethylcarbamoyl)phenyl)pyridin-2-yl)amino)pyridin-3-yl)-1-hydroxy-1,3-dihydrobenzo[c][1,2]oxaborole-5-carboxamide] | 10 to 100 | 1 to 10 | 10 to 100 |
| O=C1CCCN1c1ccc(-c2ccc(Nc3cnc4c(c3)N(C(=O)C3CC3)CCO4)nc2)cc1 [Example 150, 1-(4-(6-((1-(cyclopropanecarbonyl)-2,3-dihydro-1H-pyrido[2,3-b][1,4]oxazin-7-yl)amino)pyridin-3-yl)phenyl)pyrrolidin-2-one] | 10 to 100 | 1 to 10 | 1 to 10 |
| CN(C)C(=O)c1ccc(-c2ccc(Nc3cnc4c(c3)N(C(=O)CO)CCO4)nc2)cc1 [Example 89, 4-(6-((1-(2-hydroxyacetyl)-2,3-dihydro-1H-pyrido[2,3-b][1,4]oxazin-7-yl)amino)pyridin-3-yl)-N,N-dimethylbenzamide] | 10 to 100 | 1 to 10 | 10 to 100 |
| CN(C)C(=O)c1ccc(-c2ccc(Nc3cncc(NC(=O)c4ccc5cc[nH]c5c4)c3)nc2)cc1 [Example 135, N-(5-((5-(4-(dimethylcarbamoyl)phenyl)pyridin-2-yl)amino)pyridin-3-yl)-1H-indole-6-carboxamide] | 10 to 100 | 10 to 100 | 10 to 100 |
| O=C1CCCN1c1ccc(-c2ccc(Nc3cnc4c(c3)N3C(=O)CC[C@H]3CO4)nc2)cc1F [Example 246, (S)-2-((5-(3-fluoro-4-(2-oxopyrrolidin-1-yl)phenyl)pyridin-2-yl)amino)-6,6a,7,8-tetrahydro-9H-pyrido[2,3-b]pyrrolo[1,2-d][1,4]oxazin-9-one] | 10 to 100 | 1 to 10 | 1 to 10 |
